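Protocol summary: plate cells (96-well), add compound at 5 concentrations, incubate 48 h, interpolate endpoints linearly. Here, GI50 denotes the concentration required for 50% inhibition of growth.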 Active and inactive are the calls of the source. Rule as the data show it: active = GI50 up to about 1.1 µM and inactive = higher.
Experiments:
Test in all cases: NCI-60 cell line screen, 48 h
[1] = system: NCI-H522
[2] = system: A549
[3] = system: BT-549
[4] = system: SK-MEL-28
[5] = system: NCI/ADR-RES
[6] = system: SR
[7] = system: SF-268
[8] = system: Hs-578T
[9] = system: A498
[10] = system: Malme-3M
[11] = system: HL-60
[12] = system: KM12
[13] = system: SF-295
[14] = system: SNB-19
[15] = system: NCI-H226
[16] = system: HOP-62
[17] = system: RXF 393
[18] = system: MDA-MB-435
[19] = system: LOX IMVI

SMILES | GI50 [1] | GI50 [2] | GI50 [3] | GI50 [4] | GI50 [5] | GI50 [6] | GI50 [7] | GI50 [8] | GI50 [9] | GI50 [10] | GI50 [11] | GI50 [12] | GI50 [13] | GI50 [14] | GI50 [15] | GI50 [16] | GI50 [17] | GI50 [18] | GI50 [19]
Cc1cc(-c2nc3ccccc3s2)ccc1N | 18.5 µM (inactive) | 32.8 µM (inactive) | 48.3 µM (inactive) | > 76.6 µM (inactive) | 57.4 µM (inactive) | 25.6 µM (inactive) | 52 µM (inactive) | > 100 µM (inactive) | 4.34 µM (inactive) | 64.3 µM (inactive) | 15.7 µM (inactive) | 42.5 µM (inactive) | 43 µM (inactive) | > 70.1 µM (inactive) | 8.67 µM (inactive) | 49.9 µM (inactive) | 50.8 µM (inactive) | 56.9 µM (inactive) | 31.6 µM (inactive)
CC(NC(=O)CNP(=O)(c1ccccc1)c1ccccc1)C(=O)NC(Cc1ccccc1)C(=O)OCc1ccccc1 (stereo unspecified) | 19.6 µM (inactive) | > 100 µM (inactive) | > 100 µM (inactive) | 23.8 µM (inactive) | > 100 µM (inactive) | 24.9 µM (inactive) | 21.6 µM (inactive) | 27.5 µM (inactive) | > 100 µM (inactive) | 60.8 µM (inactive) | 28.6 µM (inactive) | 25.6 µM (inactive) | 19 µM (inactive) | 51.2 µM (inactive) | > 100 µM (inactive) | > 100 µM (inactive) | 21 µM (inactive) | 50.2 µM (inactive) | 26.7 µM (inactive)
O=C(/C=C/c1cc2ccccc2o1)N1CCN(c2ccccn2)CC1 | 28 µM (inactive) | > 100 µM (inactive) | > 100 µM (inactive) | 35.9 µM (inactive) | 60.7 µM (inactive) | > 100 µM (inactive) | > 100 µM (inactive) | > 100 µM (inactive) | > 100 µM (inactive) | 79.6 µM (inactive) | 40.7 µM (inactive) | 87.5 µM (inactive) | > 100 µM (inactive) | > 100 µM (inactive) | – | 97.9 µM (inactive) | > 100 µM (inactive) | > 100 µM (inactive) | > 100 µM (inactive)
O=c1[nH]/c(=C/c2ccc(OCc3ccccc3)cn2)c(=O)[nH]/c1=C/c1ccc(Cl)cc1 | 0.723 µM (active) | > 84.9 µM (inactive) | 0.344 µM (active) | > 76.7 µM (inactive) | 5.37 µM (inactive) | 0.301 µM (active) | 1.87 µM (inactive) | 0.804 µM (active) | 0.7 µM (active) | 0.624 µM (active) | 0.726 µM (active) | 0.895 µM (active) | 0.692 µM (active) | 5.55 µM (inactive) | 35.1 µM (inactive) | 1.33 µM (inactive) | 4.53 µM (inactive) | 0.21 µM (active) | > 22.1 µM (inactive)
COc1cc2nc3n(c(=O)c2cc1OC)CCCCC3 | > 100 µM (inactive) | > 100 µM (inactive) | > 100 µM (inactive) | > 100 µM (inactive) | > 100 µM (inactive) | > 100 µM (inactive) | > 100 µM (inactive) | > 100 µM (inactive) | > 100 µM (inactive) | > 100 µM (inactive) | > 100 µM (inactive) | > 100 µM (inactive) | > 100 µM (inactive) | – | > 100 µM (inactive) | > 100 µM (inactive) | > 100 µM (inactive) | > 100 µM (inactive) | > 100 µM (inactive)
c1ccc(CSc2nc(N3CCCCC3)c3cn[nH]c3n2)cc1 | 17 µM (inactive) | 27.4 µM (inactive) | 16.5 µM (inactive) | 19.9 µM (inactive) | 61.2 µM (inactive) | 25.3 µM (inactive) | 23.8 µM (inactive) | 17.3 µM (inactive) | 15.6 µM (inactive) | 20.4 µM (inactive) | 13.3 µM (inactive) | 14.7 µM (inactive) | 24.9 µM (inactive) | 25.2 µM (inactive) | 18.8 µM (inactive) | 17.1 µM (inactive) | 16.1 µM (inactive) | 22.4 µM (inactive) | 21 µM (inactive)
NNC(=O)CC(=O)Nc1ccc(Cl)cc1 | > 100 µM (inactive) | > 100 µM (inactive) | > 100 µM (inactive) | > 100 µM (inactive) | > 100 µM (inactive) | > 100 µM (inactive) | > 100 µM (inactive) | > 100 µM (inactive) | > 100 µM (inactive) | > 100 µM (inactive) | > 100 µM (inactive) | > 100 µM (inactive) | > 100 µM (inactive) | > 100 µM (inactive) | > 100 µM (inactive) | > 100 µM (inactive) | > 100 µM (inactive) | > 100 µM (inactive) | 34.1 µM (inactive)
